Data: patent US9796711B2, “Substituted pyrazolo[3,4-b]pyridin-6-carboxylic acids and method of use” (AbbVie S.àr.l., priority 2015, dated 2017)

Columns and labels:
ΔF508-CFTR [1] = target: T1, ΔF508-CFTR (Homo sapiens, UniProt P13569, DEL508-508); assay: CFTR cell surface levels using HRP-tagged ΔF508-CFTR expressing CFBE cells, in the presence of a co-corrector; type: cell-based; settings: HRP-tagged ΔF508-CFTR expressing CFBE cells, in the presence of 3 μM co-corrector; for EC50: read-out: EC50
T1 construct: host or cells: CFBE41o-, doxycycline-inducible
T1 sequence (P13569 with tags, fused parts or gaps DEL508-508): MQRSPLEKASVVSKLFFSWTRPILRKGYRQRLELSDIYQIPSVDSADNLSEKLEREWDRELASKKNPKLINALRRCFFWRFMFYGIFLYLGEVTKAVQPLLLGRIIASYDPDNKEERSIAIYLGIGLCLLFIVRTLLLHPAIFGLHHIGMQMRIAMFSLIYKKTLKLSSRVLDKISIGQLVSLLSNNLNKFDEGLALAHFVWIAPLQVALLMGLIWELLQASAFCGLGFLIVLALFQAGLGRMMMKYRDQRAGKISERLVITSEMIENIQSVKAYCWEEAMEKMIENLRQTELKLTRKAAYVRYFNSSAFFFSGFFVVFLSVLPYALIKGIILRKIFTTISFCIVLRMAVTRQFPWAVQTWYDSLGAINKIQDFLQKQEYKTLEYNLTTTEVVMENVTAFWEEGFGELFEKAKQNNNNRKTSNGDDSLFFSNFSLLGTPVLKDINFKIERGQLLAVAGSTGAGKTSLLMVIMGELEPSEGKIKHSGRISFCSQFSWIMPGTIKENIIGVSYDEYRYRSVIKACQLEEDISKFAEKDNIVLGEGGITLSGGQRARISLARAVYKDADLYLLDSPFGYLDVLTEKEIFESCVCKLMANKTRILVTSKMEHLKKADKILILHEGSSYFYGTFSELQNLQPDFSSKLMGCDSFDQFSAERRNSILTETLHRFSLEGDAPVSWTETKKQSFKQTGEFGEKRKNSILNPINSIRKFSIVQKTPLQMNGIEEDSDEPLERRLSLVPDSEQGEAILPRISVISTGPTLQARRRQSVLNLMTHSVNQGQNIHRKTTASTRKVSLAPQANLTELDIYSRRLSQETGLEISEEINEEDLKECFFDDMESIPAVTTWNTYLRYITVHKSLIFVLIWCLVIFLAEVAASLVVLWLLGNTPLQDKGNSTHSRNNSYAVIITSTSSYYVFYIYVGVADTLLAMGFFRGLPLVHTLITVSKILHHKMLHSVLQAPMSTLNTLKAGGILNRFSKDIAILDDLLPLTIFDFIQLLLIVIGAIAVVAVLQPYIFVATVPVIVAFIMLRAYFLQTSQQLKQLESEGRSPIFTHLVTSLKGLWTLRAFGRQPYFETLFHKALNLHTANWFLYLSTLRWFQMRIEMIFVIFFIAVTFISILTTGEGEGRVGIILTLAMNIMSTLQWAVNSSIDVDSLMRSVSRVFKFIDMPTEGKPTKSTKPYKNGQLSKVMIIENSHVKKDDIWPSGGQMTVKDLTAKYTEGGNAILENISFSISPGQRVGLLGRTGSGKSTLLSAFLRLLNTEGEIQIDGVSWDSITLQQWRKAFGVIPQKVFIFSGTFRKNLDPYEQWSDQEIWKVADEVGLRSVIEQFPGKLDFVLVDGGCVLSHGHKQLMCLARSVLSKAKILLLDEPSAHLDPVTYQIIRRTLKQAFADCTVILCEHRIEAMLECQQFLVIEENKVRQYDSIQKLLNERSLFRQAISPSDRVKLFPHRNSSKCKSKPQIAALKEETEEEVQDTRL
Method in brief: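 Cells were seeded with 0.5 μg/mL doxycycline and held 68 h at 37 °C. Test compounds plus 3 μM co-corrector (final 0.1% DMSO) were then added for 20 h at 33 °C. Washed cells received HRP substrate, and luminescence was normalized between DMSO and 3 μM co-corrector controls.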

ΔF508-CFTR [2] = target: T1, ΔF508-CFTR; assay: CFTR cell surface levels using HRP-tagged ΔF508-CFTR expressing CFBE cells, intrinsic corrector capacity; type: cell-based; settings: for EC50: read-out: EC50
Method in brief: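 Here the cells express ΔF508-CFTR with horseradish peroxidase inserted in extracellular loop 4, so only rescued channel at the surface gives luminescent signal. Compounds act on their own, 20 h at the reduced temperature of 33 °C; values are percent activity relative to DMSO and a 3 μM corrector.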

[3] = HRP-tagged ΔF508-CFTR CFBE41o- cells, compounds alone (intrinsic corrector capacity), 20 hours at 33° C., positive control 3 μM corrector
[4] = HRP-tagged ΔF508-CFTR CFBE41o- cells, compounds alone (intrinsic corrector capacity), 20 hours at 33° C.
[5] = HRP-tagged ΔF508-CFTR expressing CFBE cells, intrinsic corrector capacity (no co-corrector), 33° C., 20 hours

Row | SMILES | % Activation (ΔF508-CFTR [1]) [%] | EC50 (ΔF508-CFTR [1]) [nM] | % Activation (ΔF508-CFTR [2]; [3]) [%] | EC50 (ΔF508-CFTR [2]; [4]) [nM] | % Activation (ΔF508-CFTR [2]; [5]) [%] | EC50 (ΔF508-CFTR [2]; [5]) [nM]
1 | CC(C)c1nn(C2CCCC2)c2nc(C(=O)O)cc(-c3ccc(N4CCOCC4)nc3)c12 [compound 77, 1-cyclopentyl-4-[6-(morpholin-4-yl)pyridin-3-yl]-3-(propan-2-yl)-1H-pyrazolo[3,4-b]pyridine-6-carboxylic acid] | 343.4 | 1110 | 139.5 | 1170 | – | –
2 | COCCN(C)c1ccc(-c2cc(C(=O)O)nc3c2c(C(C)C)nn3-c2cccc(N3CCCC3)c2)cc1 [compound 238, 4-{4-[(2-methoxyethyl)(methyl)amino]phenyl}-3-(propan-2-yl)-1-[3-(pyrrolidin-1-yl)phenyl]-1H-pyrazolo[3,4-b]pyridine-6-carboxylic acid] | 613.4 | 540 | 393.7 | 827 | – | –
3 | Cc1nn(-c2ccccc2)c2nc(C(=O)O)cc(OC[C@@H](F)C3CCN(C)CC3)c12 [compound 379, 4-[(2S)-2-fluoro-2-(1-methylpiperidin-4-yl)ethoxy]-3-methyl-1-phenyl-1H-pyrazolo[3,4-b]pyridine-6-carboxylic acid] | 128.5 | 5010 | 4.874 | 5010 | – | –
4 | CC(C)c1nn(-c2cccc(N3CCOCC3)c2)c2nc(C(=O)O)cc(-c3ccc(N(C)C4CCOCC4)nc3)c12 [compound 187, 4-{6-[methyl(oxan-4-yl)amino]pyridin-3-yl}-1-[3-(morpholin-4-yl)phenyl]-3-(propan-2-yl)-1H-pyrazolo[3,4-b]pyridine-6-carboxylic acid] | 522 | 565 | 367.4 | 674 | – | –
5 | N#CC1CCN(c2ccc(-c3cc(C(=O)O)nc4c3c(C3CC(F)(F)C3)nn4-c3ccccc3)cn2)CC1 [compound 420, 4-[6-(4-cyanopiperidin-1-yl)pyridin-3-yl]-3-(3,3-difluorocyclobutyl)-1-phenyl-1H-pyrazolo[3,4-b]pyridine-6-carboxylic acid] | 411.25 | 289 | – | – | 211.15 | 534
6 | COC1CN(C(=O)COc2cc(C(=O)O)nc3c2c(C2CCC2)nn3-c2ccccc2)C1 [compound 481, 3-cyclobutyl-4-[2-(3-methoxyazetidin-1-yl)-2-oxoethoxy]-1-phenyl-1H-pyrazolo[3,4-b]pyridine-6-carboxylic acid] | 210.3 | 3050 | – | – | 48.6 | 3340
7 | COc1ccc(-n2nc(C3CCC3)c3c(N4CCC(N5CCOCC5)CC4)cc(C(=O)O)nc32)cc1F [compound 912, 3-cyclobutyl-1-(3-fluoro-4-methoxyphenyl)-4-[4-(morpholin-4-yl)piperidin-1-yl]-1H-pyrazolo[3,4-b]pyridine-6-carboxylic acid] | 397.9 | 267 | – | – | 212.4 | 720
8 | O=C(O)c1cc(OCCC2CCCCC2)c2c(C3CCC3)nn(-c3ccccc3)c2n1 [compound 633, 3-cyclobutyl-4-(2-cyclohexylethoxy)-1-phenyl-1H-pyrazolo[3,4-b]pyridine-6-carboxylic acid] | 279.27 | 714 | – | – | 66.87 | 666
9 | O=C(O)c1cc(N2CC3(CCCCO3)C2)c2c(C3CCC3)nn(-c3ccccc3)c2n1 [compound 424, 3-cyclobutyl-4-(5-oxa-2-azaspiro[3.5]nonan-2-yl)-1-phenyl-1H-pyrazolo[3,4-b]pyridine-6-carboxylic acid] | 254.9 | 829 | – | – | 86.32 | 1080
10 | O=C(O)c1cc(N2CC(N3CCOC3=O)C2)c2c(C3CCC3)nn(-c3ccccc3)c2n1 [compound 529, 3-cyclobutyl-4-[3-(2-oxo-1,3-oxazolidin-3-yl)azetidin-1-yl]-1-phenyl-1H-pyrazolo[3,4-b]pyridine-6-carboxylic acid] | 126.7 | > 10000 | – | – | 5.039 | > 10000
